Experimental data published in patent US8389551B2, “Optical enantiomers of phenyramidol and process for chiral synthesis” (Fermenta Biotech (UK) Limited, priority 2006, dated 2013).
Marks after values point to notes of the source that are not given here.

Legend:
Assay type in all cases: in vivo
rats = test: Anti-arthritic activity, thickness of joint of right paw after injection of formalin; conditions: for Thickness of Joint (in cm) 0 hr: 0 hr (initial); for Thickness of Joint (in cm) 0 hr / Thickness of Joint (in cm) 2 hr: Phen 3 2400 mg, Phen 2 and Phen 4 1200 mg human daily dose extrapolated to rats, Diclofenac sodium 2 mg/Kg; for Thickness of Joint (in cm) 2 hr: 2 hr after formalin; for Thickness of Joint (in cm) 4 hr: 4 hr after formalin; for Thickness of Joint (in cm) 4 hr / Thickness of Joint (in cm) 8 hr / Thickness of Joint (in cm) 24 hr / Thickness of Joint (in cm) 48 hr / Thickness of Joint (in cm) 72 hr: doses as E38; for Thickness of Joint (in cm) 8 hr: 8 hr after formalin; for Thickness of Joint (in cm) 24 hr: 24 hr after formalin; for Thickness of Joint (in cm) 48 hr: 48 hr after formalin; for Thickness of Joint (in cm) 72 hr: 72 hr after formalin; for difference from normal control in thickness of the joint: at 2 hr, One Way ANOVA followed by Dunnett's Test; for Anti-arthritic activity (conclusion): formalin model, FIG. 18
Protocol: The anti-arthritic activity was assessed using following time points after the injection of formalin 2 hrs, 4 hrs, 8 hrs, 24 hrs, 48 hrs and 72 hrs. The control group (group 1) received 1% gum acacia. The Groups 2, 3, and 4 received the formulations viz: Phen 2, Phen 3 and Phen 4 respectively. Diclofenac was used as positive control and given to group 5. Human daily dose of 2400 mg (800 mg×3 times) was extrapolated to rats for 5 (racemate) Phen 3 and human daily dose of 1200 mg (400 mg×3 times) was extrapolated to rats for (isomer 1) Phen 2 and (isomer 2) Phen 4. Diclofenac sodium 2 mg/Kg was used as reference product.
Initial or 0 hr thickness of the joint of right paw of each animal was recorded. The thickness of the joint was measured using Vernier calipers at different time intervals after the injection of formalin. These efficacy variables were assessed at six time points 2 hrs, 4 hrs, 8 hrs, 24 hrs, 48 hrs and 72 hrs for each and every animal.

mice = test: Central analgesic activity, tail flick analgesiometer
Wistar rats = test: Anti-inflammatory activity, carrageenin induced paw edema (plethysmometer); conditions: for % Increase in Paw volume 1 HR: 1 HR after carrageenan, oral, racemate 2400 mg, isomers 1200 mg human daily dose extrapolated to rats, Indomethacin 15 mg/kg, diclofenac 10 mg/kg; for % Increase in Paw volume 2 HR: 2 HR after carrageenan; for % Increase in Paw volume 2 HR / % Increase in Paw volume 3 HR / % Increase in Paw volume 5 HR: doses as E46; for % Increase in Paw volume 3 HR: 3 HR after carrageenan; for % Increase in Paw volume 5 HR: 5 HR after carrageenan
Protocol: Further, the investigations were carried out to determine the anti-inflammatory activities of the molecule of the present invention. Wistar rats weighing between 160-210 gm were divided into 6 groups of 10 animals each. Group I served as control (Placebo) and receive CMC and Group II & III received anti-inflammatory control (positive control) (Diclofenac & Indomethacin respectively). Group IV to VI were treated orally with test formulations. After 15 min. of drug administration, inflammation was induced by injecting 0.1 ml of freshly prepared 1% carrageenin (in normal saline) into the left hind paw of the rat. The paw volume of the […] was measured by measuring the displace fluid in other hand of plethysmometer.
Indomethacin (15 mg/kg and declofenac (10 mg/kg) was used as reference product. Percent increased in rat paw edema was measured and compare to normal control at each time intervals.
The antiinflammatory activity was assessed plethysmographically using following time points after the administration of carrageenan, 1 hr, 2 hrs, 3 hrs and 5 hrs.

swiss albino mice [1] = test: Analgesic activity, acetic acid induced writhing method
Protocol: The objective of the study was to evaluate the analgesic activity of the tested formulations of the compounds of the present invention. The test was conducted in Swiss albino mice using acetic acid induced writhing method. A total of 78 pre-screened mice (showing writhing response within 10 minutes*) were divided into 6 groups of 13 animals (6 males+7 females) each. The animals showing no writhing response within 10 mins were excluded. Diclofenac and pentazocine were used as positive controls. The formulations were given orally to the different groups of animals and the number of writhes counted for a period of 15 minutes, after the onset of writhes. If the onset of writhes occurred 30 after 10 minutes the number of writhes was recorded as V. The time of onset of writhes was recorded for each animal.
The control group received 1% gum acacia. The Groups 2, 3, and 4 received the formulations viz: Phen 2; Phen 3 and Phen 4 respectively. Diclofenac and pentazocine were used as positive control and given to groups 5 and 6 respectively. Diclofenac, a potent analgesic & anti-inflammatory agent; and 5 pentazocine an opoid analgesic were selected for comparative evaluation of test formulations. Both these drugs were administered to different groups of animals at the dose of 2 mg/kg. The group 1 (Phen 1) served as—Ve Control group in the study. Phen 5 (Diclofenac—2 mg/kg) and Positive Control: Phen 6 (Pentazocine 2 mg/kg) served as positive controls.
Human daily dose of 2400 mg (800 mg×3 times) was extrapolated to mice for Phen3 and human daily dose of 1200 mg (400 mg×3 times) was extrapolated to mice for Phen2 and Phen 4. The numbers of writhes observed are given below in Table 4 for each formulation.
Further, the evaluation of analgesic activity was carried out using variable dosage forms with different groups. A total of 100 animals (50 males+50 females) were selected randomly and distributed into ten main groups with 10 animals per group (5 M+5 F). Human daily dose of 2400 mg (800 mg×3 times) was extrapolated to mice for Phen 3 (Phenyramidol Racemic (Hydrochloride) and human daily dose of 1200 mg (400 mg×3 times), 1800 mg (400 mg×4.5 times), 2000 mg (400 mg×5 times) & 2400 mg (400 mg×6 times) was extrapolated to mice for Phen2 and Phen4 groups.
The control group 1 received 1% gum acacia and served as negative control group. Groups 2, 3, 4 & 5 received the formulation Phen2. Groups 6, 7, 8 & 9 received the formulation Phen 4 (Isomer 2) & Group 10 received the formulation Phen 3 (Racemic).
Further, one more experiment was done with phenyramidol hydrochloride to evaluate the analgesic activity at lesser dosage levels using acetic acid induced method. A total of 50 animals (25 males+25 females) were selected and randomly distributed into five main groups with 10 animals per group (5 M+5 F). 5 Human daily dose of 600 mg (400×1.5 times) & 1200 mg (800 mg×1.5 times) was extrapolated to mice for Phen 3 (Racemic) and human daily dose of 600 mg (400 mg×1.5 times) was extrapolated to mice for (−) Phenyramidol Hydrochloride & (+) Phenyramidol Hydrochloride and the results are discussed in Table 6.

swiss albino mice [2] = test: Skeletal muscle relaxant activity, Rota rod apparatus, first experiment (oxalate salts, dose groups); conditions: at the doses mentioned
Protocol: The evaluation of skeletal muscle relaxant activity of the formulations containing phenyramidol racemic, dextro and laevo isomers of oxalate salts in swiss albino mice were carried out using Rota rod apparatus. Each animal was trained only once per day for 5 days. […] Mouse was placed on rota rod only when it achieved the speed of 25 rpm. The ‘fall off time’ in seconds was noted down when the mouse falls from rotating rod. Endurance time was measured up to 120 seconds. The skeletal muscle relaxant activity was assessed using 0 hr, 1 hr, 2 hrs, 4 hrs and 6 hrs time points after the dose administration. A total of 100 mice were selected and randomly distributed into ten main groups with 10 animals per group.
Control group receiving only vehicle served as a placebo in the study.
The test formulations were administered by oral route through gavage tube.(p.o.).
Two efficacy variables were assessed during the experiment: 1. Percent animal falling from the rod was noted; 2. Endurance Time (ET): The time taken for a mouse to fall from the rod was taken as endurance time. […] These efficacy variables were assessed at five time points 0 hr, 1 hr, 2 hr, 4 hr, and 6 hr for each and every animal.

[3] = 1 hr. after dose, human daily dose 2400 mg or 1200 mg extrapolated to mice, cut-off 10-12 seconds
[4] = 4 hr. after dose, human daily dose 2400 mg or 1200 mg extrapolated to mice, cut-off 10-12 seconds
[5] = Table 4, oral, writhes counted 15 minutes, Phen3 human daily dose 2400 mg, Phen2 and Phen 4 1200 mg extrapolated to mice, Diclofenac and Pentazocine 2 mg/kg
[6] = Table 5, dose 2400 mg (human daily dose extrapolated to mice), mean ± SD, n = 10
[7] = Table 6, dose 600 mg (human daily dose extrapolated to mice), mean ± SD, n = 10
[8] = experiment of Table 5 (variable doses)
[9] = experiment of Table 6, lesser dosage levels
[10] = Table 5, dose 1200 mg (human daily dose extrapolated to mice), mean ± SD, n = 10
[11] = Table 5, dose 1800 mg (human daily dose extrapolated to mice), mean ± SD, n = 10
[12] = Table 5, dose 2000 mg (human daily dose extrapolated to mice), mean ± SD, n = 10

| Compound | Thickness of Joint (in cm) 0 hr (rats) | Thickness of Joint (in cm) 2 hr (rats) | Thickness of Joint (in cm) 4 hr (rats) | Thickness of Joint (in cm) 8 hr (rats) | Thickness of Joint (in cm) 24 hr (rats) | Thickness of Joint (in cm) 48 hr (rats) | Thickness of Joint (in cm) 72 hr (rats) | % Increase in Paw volume 1 HR (Wistar rats) | % Increase in Paw volume 2 HR (Wistar rats) | % Increase in Paw volume 3 HR (Wistar rats) | % Increase in Paw volume 5 HR (Wistar rats) | Average no. of writhes (swiss albino mice [1]; [5]) | Average no. of writhes (swiss albino mice [1]; [6]) | analgesic activity by decrease in the number of writhes induced by acetic acid (swiss albino mice [1]; experiment of Table 4) | analgesic activity by decrease in the number of writhes induced by acetic acid (swiss albino mice [1]; [8]) | Tail Flick Reaction Time (Sec.) 1 hr. (mice; mouse, in vivo) | Tail Flick Reaction Time (Sec.) 4 hr. (mice; mouse, in vivo) | also measured |
| --- | --- | --- | --- | --- | --- | --- | --- | --- | --- | --- | --- | --- | --- | --- | --- | --- | --- | --- |
| OC(CNc1ccccn1)c1ccccc1 (racemic) [Phen 3, 2-(β-hydroxyphenethylamino) pyridine, reference compound] | 0.48 ± 0.04 cm | 0.59 ± 0.03 cm | 0.59 ± 0.04 cm | 0.62 ± 0.06 cm | 0.52 ± 0.05 cm | 0.54 ± 0.05 cm | 0.55 ± 0.05 cm | 24.15 ± 7.27% | 44.73 ± 6.56% | 61.40 ± 18.21% | 47.13 ± 19.14% | 3.54 ± 3.95* | 4.20 ± 3.77* | significant analgesic activity | significant analgesic activity |  |  | Tail Flick Reaction Time (Sec.) 1 hr. (mice; [3]): 4.86 ± 3.023 s; Tail Flick Reaction Time (Sec.) 4 hr. (mice; [4]): 5.055 ± 2.735 s; analgesic activity (tail flick latency compared to control) (mice; at 4 hr after dose administration): significant analgesic activity; Average no. of writhes (swiss albino mice [1]; [7]): 5.90 ± 6.14*; Average no. of writhes (swiss albino mice [1]; Table 6, dose 1200 mg (human daily dose extrapolated to mice), mean ± SD, n = 10): 1.50 ± 2.59*; analgesic activity by decrease in the number of writhes induced by acetic acid (swiss albino mice [1]; [9]): significant analgesic activity |
| Cl.O[C@@H](CNc1ccccn1)c1ccccc1 [(−) Phenyramidol Hydrochloride, (R)-Phenyramidol Hydrochloride Salt] |  |  |  |  |  |  |  |  |  |  |  |  |  |  |  |  |  | Average no. of writhes (swiss albino mice [1]; [7]): 3.20 ± 4.16*; analgesic activity (summary statement) (swiss albino mice [1]; confirmed by an acetic acid induced writhing method): enhanced analgesic activity; analgesic activity by decrease in the number of writhes induced by acetic acid (swiss albino mice [1]; [9]): significant analgesic activity |
| O=C(O)Cc1ccccc1Nc1c(Cl)cccc1Cl [Diclofenac, reference compound] | 0.49 ± 0.04 cm | 0.56 ± 0.04 cm | 0.56 ± 0.04 cm | 0.62 ± 0.03 cm | 0.54 ± 0.05 cm | 0.53 ± 0.05 cm | 0.51 ± 0.03 cm | 15.77 ± 13.94% | 33.39 ± 7.35 % | 43.03 ± 15.41 % | 30.44 ± 9.52% | 4.08 ± 6.32* |  |  |  |  |  | difference from normal control in thickness of the joint (rats): significant decrease in the thickness of the joint; Tail Flick Reaction Time (Sec.) 1 hr. (mice; [3]): 3.41 ± 1.421 s; Tail Flick Reaction Time (Sec.) 4 hr. (mice; [4]): 2.48 ± 0.654 s |
| COc1ccc2c(c1)c(CC(=O)O)c(C)n2C(=O)c1ccc(Cl)cc1 [Indomethacin] |  |  |  |  |  |  |  | 18.58 ± 11.38% | 31.27 ± 4.75 % | 41.42 ± 12.54 % | 28.86 ± 8.22 % |  |  |  |  |  |  |  |
| CC(C)=CCN1CCC2(C)c3cc(O)ccc3CC1C2C (stereo not drawn) [Pentazocine] |  |  |  |  |  |  |  |  |  |  |  | 10.62 ± 9.47* |  |  |  | 3.0 ± 0.7055 s | 3.0 ± 0.7055 s |  |
| O=C(O)C(=O)O.O[C@H](CNc1ccccn1)c1ccccc1 [Phen 2, (S)-Phenyramidol Oxalate] | 0.45 ± 0.06 cm | 0.59 ± 0.03 cm | 0.56 ± 0.04 cm | 0.60 ± 0.06 cm | 0.54 ± 0.05 cm | 0.52 ± 0.04 cm | 0.50 ± 0.03 cm | 25.82 ± 11.67% | 40.57 ± 10.07% | 66.59 ± 20.88% | 48.71 ± 15.16% | 13.08 ± 9.93* | 6.00 ± 5.66* | significant analgesic activity | significant analgesic activity | 4.31 ± 1.754 s | 2.46 ± 0.591 s | skeletal muscle relaxant activity (conclusion) (swiss albino mice [2]): exhibit skeletal muscle relaxant activity; Average no. of writhes (swiss albino mice [1]; [10]): 11.90 ± 8.43*; Average no. of writhes (swiss albino mice [1]; [11]): 8.80 ± 6.78*; Average no. of writhes (swiss albino mice [1]; [12]): 8.20 ± 7.30* |
| O=C(O)C(=O)O.O[C@@H](CNc1ccccn1)c1ccccc1 [Phen 4, (R)-Phenyramidol Oxalate] | 0.49 ± 0.04 cm | 0.56 ± 0.05 cm | 0.56 ± 0.05 cm | 0.62 ± 0.03 cm | 0.55 ± 0.05 cm | 0.53 ± 0.04 cm | 0.51 ± 0.03 cm | 25.37 ± 10.44% | 39.90 ± 6.12% | 68.36 ± 22.20% | 49.65 ± 19.03% | 12.08 ± 4.21* | 4.50 ± 5.19* | significant analgesic activity | significant analgesic activity | 2.87 ± 1.071 s | 3.18 ± 1.540 s | difference from normal control in thickness of the joint (rats): significant difference (p<0.05); Anti-arthritic activity (conclusion) (rats): exhibits Anti-arthritic activity; Anti-arthritic activity (conclusion) (rats; listed as Phen4): significant anti-arthritic activity; Average no. of writhes (swiss albino mice [1]; [10]): 10.50 ± 6.65*; Average no. of writhes (swiss albino mice [1]; [11]): 6.20 ± 5.39*; Average no. of writhes (swiss albino mice [1]; [12]): 6.00 ± 6.41* |
